Reference: patent publication US20120122860A1, “SOLID FORMS OF SULFONAMIDES AND AMINO ACIDS” (Plexxikon, Inc., priority 2009, published 2012)

How the values were obtained:
Src = Src (Homo sapiens, UniProt P12931); test: Kinase activity assay, Src
Kit = Kit (Homo sapiens, UniProt P10721); test: Kinase activity assay, Kit
B-Raf = B-Raf (Homo sapiens, UniProt P15056); test: Kinase activity assay, B-Raf; type: biochemical; settings: read-out: activity toward kinase B-Raf, IC50
TEC = molecular target: T1, TEC (Homo sapiens, UniProt P42680); test: Kinase activity assay, TEC
T1 sequence (P42680 1-631): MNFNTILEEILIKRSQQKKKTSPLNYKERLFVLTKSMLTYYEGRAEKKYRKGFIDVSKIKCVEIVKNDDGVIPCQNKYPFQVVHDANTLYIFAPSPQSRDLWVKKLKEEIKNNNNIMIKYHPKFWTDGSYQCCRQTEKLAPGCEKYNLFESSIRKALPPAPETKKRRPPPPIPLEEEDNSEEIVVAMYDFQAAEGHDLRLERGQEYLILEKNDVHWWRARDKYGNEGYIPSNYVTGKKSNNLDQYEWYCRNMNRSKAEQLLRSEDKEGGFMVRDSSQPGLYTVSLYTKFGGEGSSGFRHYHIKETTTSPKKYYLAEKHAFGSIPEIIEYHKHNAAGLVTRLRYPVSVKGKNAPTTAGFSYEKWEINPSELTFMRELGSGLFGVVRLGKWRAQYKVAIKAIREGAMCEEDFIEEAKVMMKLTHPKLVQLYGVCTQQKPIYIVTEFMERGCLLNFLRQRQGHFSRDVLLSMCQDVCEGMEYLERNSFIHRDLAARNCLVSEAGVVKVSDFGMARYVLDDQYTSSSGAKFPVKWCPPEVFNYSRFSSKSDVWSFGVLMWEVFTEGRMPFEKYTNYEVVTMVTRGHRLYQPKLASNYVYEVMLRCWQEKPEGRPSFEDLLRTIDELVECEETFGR

Kdr = Kdr (Homo sapiens, UniProt P35968); test: Kinase activity assay, Kdr
Chain of Kdr (P35968 20-1356): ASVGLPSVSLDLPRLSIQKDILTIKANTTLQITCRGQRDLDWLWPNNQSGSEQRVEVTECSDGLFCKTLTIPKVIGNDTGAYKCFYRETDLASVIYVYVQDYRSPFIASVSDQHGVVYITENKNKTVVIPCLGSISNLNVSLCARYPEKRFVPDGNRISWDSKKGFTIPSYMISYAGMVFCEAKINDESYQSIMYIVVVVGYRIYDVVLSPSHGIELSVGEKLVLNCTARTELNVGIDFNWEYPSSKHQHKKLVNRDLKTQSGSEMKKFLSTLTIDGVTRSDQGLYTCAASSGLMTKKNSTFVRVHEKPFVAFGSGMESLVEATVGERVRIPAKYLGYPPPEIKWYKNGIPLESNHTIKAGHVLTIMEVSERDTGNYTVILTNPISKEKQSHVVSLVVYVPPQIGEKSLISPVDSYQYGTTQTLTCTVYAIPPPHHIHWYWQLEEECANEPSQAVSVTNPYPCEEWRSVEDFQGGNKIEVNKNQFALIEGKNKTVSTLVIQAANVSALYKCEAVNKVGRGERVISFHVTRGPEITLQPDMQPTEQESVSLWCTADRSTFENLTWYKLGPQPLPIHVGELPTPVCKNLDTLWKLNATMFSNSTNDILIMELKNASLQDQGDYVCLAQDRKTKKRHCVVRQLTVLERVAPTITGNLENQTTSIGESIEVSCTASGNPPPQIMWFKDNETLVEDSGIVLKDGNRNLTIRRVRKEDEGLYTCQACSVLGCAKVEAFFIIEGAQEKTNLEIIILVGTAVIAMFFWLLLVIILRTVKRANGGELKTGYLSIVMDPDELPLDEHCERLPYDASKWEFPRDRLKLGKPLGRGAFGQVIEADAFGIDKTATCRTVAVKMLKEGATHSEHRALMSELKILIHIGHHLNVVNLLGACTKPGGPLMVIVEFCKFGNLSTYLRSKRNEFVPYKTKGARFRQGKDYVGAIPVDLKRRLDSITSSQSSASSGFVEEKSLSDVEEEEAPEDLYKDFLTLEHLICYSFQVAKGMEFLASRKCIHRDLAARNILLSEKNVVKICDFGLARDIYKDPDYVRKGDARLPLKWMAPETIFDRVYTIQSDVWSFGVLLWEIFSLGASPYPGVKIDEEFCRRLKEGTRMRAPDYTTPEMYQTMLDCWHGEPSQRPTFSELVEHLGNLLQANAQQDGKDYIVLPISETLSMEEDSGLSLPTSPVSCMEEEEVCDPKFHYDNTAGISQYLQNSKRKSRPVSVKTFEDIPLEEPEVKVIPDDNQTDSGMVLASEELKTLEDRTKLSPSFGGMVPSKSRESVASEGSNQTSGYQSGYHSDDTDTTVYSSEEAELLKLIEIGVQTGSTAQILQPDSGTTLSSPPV

C-Raf = C-Raf (Homo sapiens, UniProt P04049); test: Kinase activity assay, C-Raf
Chain of C-Raf (P04049 whole entry): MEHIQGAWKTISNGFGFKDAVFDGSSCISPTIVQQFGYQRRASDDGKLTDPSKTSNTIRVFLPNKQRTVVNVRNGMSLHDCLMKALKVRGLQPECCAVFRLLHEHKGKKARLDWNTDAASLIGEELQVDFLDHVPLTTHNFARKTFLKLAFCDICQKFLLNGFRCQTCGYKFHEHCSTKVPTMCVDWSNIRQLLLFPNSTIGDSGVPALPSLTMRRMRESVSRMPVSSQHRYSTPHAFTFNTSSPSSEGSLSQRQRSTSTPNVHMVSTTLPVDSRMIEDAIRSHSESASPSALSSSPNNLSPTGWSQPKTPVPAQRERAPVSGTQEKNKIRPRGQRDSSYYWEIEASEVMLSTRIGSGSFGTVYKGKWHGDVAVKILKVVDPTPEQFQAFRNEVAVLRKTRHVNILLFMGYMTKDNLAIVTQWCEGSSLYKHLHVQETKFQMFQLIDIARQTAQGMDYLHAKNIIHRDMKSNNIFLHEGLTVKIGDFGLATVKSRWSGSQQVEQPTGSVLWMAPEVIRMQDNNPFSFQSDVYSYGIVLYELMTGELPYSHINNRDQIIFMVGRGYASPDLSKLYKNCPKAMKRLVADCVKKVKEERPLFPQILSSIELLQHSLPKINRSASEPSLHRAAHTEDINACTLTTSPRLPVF

B-Raf V600E = B-Raf V600E (Homo sapiens, UniProt P15056, V600E); test: Kinase activity assay, B-Raf V600E; type: biochemical; settings: read-out: activity toward kinase B-Raf V600E, IC50
Chain of B-Raf V600E (P15056 whole entry V600E): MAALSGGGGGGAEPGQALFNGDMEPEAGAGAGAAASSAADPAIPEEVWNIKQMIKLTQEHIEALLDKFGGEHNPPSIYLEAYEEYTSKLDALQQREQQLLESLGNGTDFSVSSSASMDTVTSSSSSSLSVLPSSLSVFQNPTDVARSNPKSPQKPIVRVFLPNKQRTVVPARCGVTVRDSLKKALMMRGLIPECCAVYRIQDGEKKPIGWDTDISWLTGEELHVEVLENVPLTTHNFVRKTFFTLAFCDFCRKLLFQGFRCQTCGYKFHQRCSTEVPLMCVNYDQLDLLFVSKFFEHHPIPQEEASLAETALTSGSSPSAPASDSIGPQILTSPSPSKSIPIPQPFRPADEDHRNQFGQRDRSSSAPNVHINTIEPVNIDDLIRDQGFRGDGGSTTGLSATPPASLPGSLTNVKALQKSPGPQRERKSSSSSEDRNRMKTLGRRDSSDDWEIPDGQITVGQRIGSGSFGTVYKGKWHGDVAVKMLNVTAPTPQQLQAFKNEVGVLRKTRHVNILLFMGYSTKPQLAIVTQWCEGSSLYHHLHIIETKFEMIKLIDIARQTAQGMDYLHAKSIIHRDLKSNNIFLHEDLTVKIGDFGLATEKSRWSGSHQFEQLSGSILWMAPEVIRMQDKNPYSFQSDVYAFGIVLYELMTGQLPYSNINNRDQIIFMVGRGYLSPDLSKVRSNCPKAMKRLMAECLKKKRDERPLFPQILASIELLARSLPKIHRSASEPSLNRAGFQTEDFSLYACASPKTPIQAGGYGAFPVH

Fms = Fms (Homo sapiens, UniProt P07333); test: Kinase activity assay, Fms
Chain of Fms (P07333 20-972): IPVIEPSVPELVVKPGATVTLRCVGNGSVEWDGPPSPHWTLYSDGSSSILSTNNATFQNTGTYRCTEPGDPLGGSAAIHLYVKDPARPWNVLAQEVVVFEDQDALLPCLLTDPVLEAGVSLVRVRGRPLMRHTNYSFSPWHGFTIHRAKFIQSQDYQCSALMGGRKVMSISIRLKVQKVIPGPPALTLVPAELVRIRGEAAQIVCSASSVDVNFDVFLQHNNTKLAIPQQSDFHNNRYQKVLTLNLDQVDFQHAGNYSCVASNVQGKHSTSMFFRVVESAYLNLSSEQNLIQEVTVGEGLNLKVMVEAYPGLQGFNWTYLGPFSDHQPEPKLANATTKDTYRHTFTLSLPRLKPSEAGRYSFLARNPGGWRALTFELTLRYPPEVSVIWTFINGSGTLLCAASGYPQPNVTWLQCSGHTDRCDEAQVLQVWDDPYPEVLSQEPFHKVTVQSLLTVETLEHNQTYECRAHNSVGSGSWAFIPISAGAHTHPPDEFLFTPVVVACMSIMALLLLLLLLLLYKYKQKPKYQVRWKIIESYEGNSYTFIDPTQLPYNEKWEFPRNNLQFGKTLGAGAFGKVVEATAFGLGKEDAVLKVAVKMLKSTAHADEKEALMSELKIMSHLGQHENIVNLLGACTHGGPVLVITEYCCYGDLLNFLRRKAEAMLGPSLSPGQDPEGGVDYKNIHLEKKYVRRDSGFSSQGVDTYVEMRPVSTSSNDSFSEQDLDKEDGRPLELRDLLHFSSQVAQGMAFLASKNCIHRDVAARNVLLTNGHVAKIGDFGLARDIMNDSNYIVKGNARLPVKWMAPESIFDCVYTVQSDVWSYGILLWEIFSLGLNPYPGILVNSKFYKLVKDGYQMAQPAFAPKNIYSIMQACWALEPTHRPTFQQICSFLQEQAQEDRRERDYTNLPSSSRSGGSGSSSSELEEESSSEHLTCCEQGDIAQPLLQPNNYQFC

Measured: IC50

Chain of Kit (P10721 26-976): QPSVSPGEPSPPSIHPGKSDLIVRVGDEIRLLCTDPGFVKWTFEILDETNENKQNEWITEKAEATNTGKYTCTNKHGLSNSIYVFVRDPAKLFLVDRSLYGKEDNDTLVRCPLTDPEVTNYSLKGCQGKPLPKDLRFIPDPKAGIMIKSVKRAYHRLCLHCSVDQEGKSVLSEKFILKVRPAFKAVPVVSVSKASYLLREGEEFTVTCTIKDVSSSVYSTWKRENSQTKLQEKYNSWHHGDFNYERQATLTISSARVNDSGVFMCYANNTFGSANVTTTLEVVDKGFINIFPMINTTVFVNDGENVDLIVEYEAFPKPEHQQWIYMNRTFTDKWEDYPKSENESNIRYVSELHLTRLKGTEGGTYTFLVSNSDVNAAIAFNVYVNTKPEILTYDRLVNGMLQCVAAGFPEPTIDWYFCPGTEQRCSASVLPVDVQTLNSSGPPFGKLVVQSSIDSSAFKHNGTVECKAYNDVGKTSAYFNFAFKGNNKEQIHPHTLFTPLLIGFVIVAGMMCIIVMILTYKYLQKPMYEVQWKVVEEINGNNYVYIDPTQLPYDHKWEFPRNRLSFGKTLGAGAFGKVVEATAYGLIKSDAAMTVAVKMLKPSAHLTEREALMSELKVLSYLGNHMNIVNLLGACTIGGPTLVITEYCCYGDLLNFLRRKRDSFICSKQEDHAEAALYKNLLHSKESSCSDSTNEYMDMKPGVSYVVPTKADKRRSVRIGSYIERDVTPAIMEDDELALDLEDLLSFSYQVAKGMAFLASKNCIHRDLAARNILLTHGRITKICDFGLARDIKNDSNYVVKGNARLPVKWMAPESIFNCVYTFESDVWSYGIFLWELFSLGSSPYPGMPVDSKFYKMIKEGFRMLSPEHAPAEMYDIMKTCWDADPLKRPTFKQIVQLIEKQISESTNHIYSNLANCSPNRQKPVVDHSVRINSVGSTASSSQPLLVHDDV
Chain of B-Raf (P15056 whole entry): as the sequence (P15056 whole entry V600E) above, with E600V counted along it

COc1ccnc2[nH]cc(C(=O)c3c(F)ccc(NS(=O)(=O)c4ccc(F)cc4)c3F)c12 [P-2027, N-[2,4-Difluoro-3-(4-methoxy-1H-pyrrolo[2,3-b]pyridine-3-carbonyl)-phenyl]-4-fluoro-benzenesulfonamide]
not listed: Fms
≤ 10 µM: all other assays above

O=C(c1cc(NS(=O)(=O)c2cccc(Cl)c2)ccc1F)c1c[nH]c2ncccc12 [P-2118, 3-Chloro-N-[4-fluoro-3-(1H-pyrrolo[2,3-b]pyridine-3-carbonyl)-phenyl]-benzenesulfonamide]
≤ 10 µM: Kit | TEC | Fms | Kdr

CCCS(=O)(=O)Nc1ccc(F)c(C(=O)c2c[nH]c3ncc(-c4ccc(O)cc4)cc23)c1F [P-2198, Propane-1-sulfonic acid {2,4-difluoro-3-[5-(4-hydroxy-phenyl)-1H-pyrrolo[2,3-b]pyridine-3-carbonyl]-phenyl}-amide]
≤ 10 µM: B-Raf | TEC | Fms | B-Raf V600E

CCCS(=O)(=O)Nc1ccc(F)c(C(=O)c2c[nH]c3ncc(-c4ccccc4Cl)cc23)c1F [P-2212, Propane-1-sulfonic acid {3-[5-(2-chloro-phenyl)-1H-pyrrolo[2,3-b]pyridine-3-carbonyl]-2,4-difluoro-phenyl}-amide]
≤ 10 µM: B-Raf | TEC | Fms | Kdr | B-Raf V600E

CC(C)S(=O)(=O)Nc1ccc(F)c(C(=O)c2c[nH]c3ncc(C#N)cc23)c1F [P-2282, Propane-2-sulfonic acid [3-(5-cyano-1H-pyrrolo[2,3-b]pyridine-3-carbonyl)-2,4-difluoro-phenyl]-amide]
≤ 10 µM: Kit | B-Raf | TEC | C-Raf | B-Raf V600E

COc1ccnc2[nH]cc(C(=O)c3c(F)ccc(NS(=O)(=O)CC(C)C)c3F)c12 [P-2306, 2-Methyl-propane-1-sulfonic acid [2,4-difluoro-3-(4-methoxy-1H-pyrrolo[2,3-b]pyridine-3-carbonyl)-phenyl]-amide]
not listed: Kdr | Fms
≤ 10 µM: all other assays above

CC(C)CS(=O)(=O)Nc1ccc(F)c(C(=O)c2c[nH]c3ncc(C#N)cc23)c1F [P-2307, 2-Methyl-propane-1-sulfonic acid [3-(5-cyano-1H-pyrrolo[2,3-b]pyridine-3-carbonyl)-2,4-difluoro-phenyl]-amide]
≤ 10 µM: Kit | B-Raf | TEC | C-Raf | B-Raf V600E

CCC(C)S(=O)(=O)Nc1ccc(F)c(C(=O)c2c[nH]c3nccc(OC)c23)c1F (centres unmarked) [P-2313, Butane-2-sulfonic acid [2,4-difluoro-3-(4-methoxy-1H-pyrrolo[2,3-b]pyridine-3-carbonyl)-phenyl]-amide]
not listed: Kit | Fms
≤ 10 µM: all other assays above

COc1ccnc2[nH]cc(C(=O)c3c(F)ccc(NS(=O)(=O)CCC(F)(F)F)c3F)c12 [P-2330, 3,3,3-Trifluoro-propane-1-sulfonic acid [2,4-difluoro-3-(4-methoxy-1H-pyrrolo[2,3-b]pyridine-3-carbonyl)-phenyl]-amide]
≤ 10 µM: Src | B-Raf | TEC | C-Raf | B-Raf V600E

O=C(c1c(F)ccc(NS(=O)(=O)C2CCCC2)c1F)c1c[nH]c2ncc(Cl)cc12 [P-2358, Cyclopentanesulfonic acid [3-(5-chloro-1H-pyrrolo[2,3-b]pyridine-3-carbonyl)-2,4-difluoro-phenyl]-amide]
not listed: Fms
≤ 10 µM: all other assays above

N#Cc1cnc2[nH]cc(C(=O)c3c(F)ccc(NS(=O)(=O)C4CCCC4)c3F)c2c1 [P-2359, Cyclopentanesulfonic acid [3-(5-cyano-1H-pyrrolo[2,3-b]pyridine-3-carbonyl)-2,4-difluoro-phenyl]-amide]
not listed: Fms
≤ 10 µM: all other assays above

COc1ccnc2[nH]cc(C(=O)c3c(F)ccc(NS(=O)(=O)C4CCCCC4)c3F)c12 [P-2361, Cyclohexanesulfonic acid [2,4-difluoro-3-(4-methoxy-1H-pyrrolo[2,3-b]pyridine-3-carbonyl)-phenyl]-amide]
not listed: Kdr | Fms
≤ 10 µM: all other assays above

COc1ccnc2[nH]cc(C(=O)c3c(F)ccc(NS(=O)(=O)N(C)C)c3F)c12 [P-2376, N,N-dimethylamino-sulfonic acid [2,4-difluoro-3-(4-methoxy-1H-pyrrolo[2,3-b]pyridine-3-carbonyl)-phenyl]-amide]
not listed: Kit | Fms
≤ 10 µM: all other assays above

COc1ccnc2[nH]cc(C(=O)c3c(F)ccc(NS(=O)(=O)N4CCCC4)c3F)c12 [P-2377, Pyrrolidine-1-sulfonic acid [2,4-difluoro-3-(4-methoxy-1H-pyrrolo[2,3-b]pyridine-3-carbonyl)-phenyl]-amide]
not listed: Kit | Fms
≤ 10 µM: all other assays above

CCN(CC)S(=O)(=O)Nc1ccc(F)c(C(=O)c2c[nH]c3nccc(OC)c23)c1F [P-2378, N,N-diethylamino-sulfonic acid [2,4-difluoro-3-(4-methoxy-1H-pyrrolo[2,3-b]pyridine-3-carbonyl)-phenyl]-amide]
≤ 10 µM: Src | TEC | Kdr | B-Raf V600E

N#Cc1cnc2[nH]cc(C(=O)c3cccc(NS(=O)(=O)C4CCCC4)c3F)c2c1 [P-2417, Cyclopentanesulfonic acid [3-(5-cyano-1H-pyrrolo[2,3-b]pyridine-3-carbonyl)-2-fluoro-phenyl]-amide]
≤ 10 µM: B-Raf | TEC | Kdr | C-Raf | B-Raf V600E

O=C(c1cc(NS(=O)(=O)C2CCCCC2)ccc1F)c1c[nH]c2ncccc12 [P-2441, Cyclohexanesulfonic acid [4-fluoro-3-(1H-pyrrolo[2,3-b]pyridine-3-carbonyl)-phenyl]-amide]
≤ 10 µM: Kit | TEC | Fms

O=C(c1cc(NS(=O)(=O)C2CCCC2)ccc1F)c1c[nH]c2ncccc12 [P-2442, Cyclopentanesulfonic acid [4-fluoro-3-(1H-pyrrolo[2,3-b]pyridine-3-carbonyl)-phenyl]-amide]
≤ 10 µM: TEC | Fms | Kdr | B-Raf V600E
